Measurements published in patent publication US10947213B1 (Merck Patent GmbH, priority 2015, dated 2021).

Each molecule was assayed against T1, TLR7/NFKb HEK cells (Homo sapiens, UniProt Q9NYK1) (assay: HEK Cell Assay (TLR7/NFKb reporter, Steady-Glo luciferase readout)). Details: 30 min compound preincubation, then R*48 agonist for 5 hours, read-out: Potency.
T1 construct: expressed in transfected cells; host or cells: HEK cells (TLR7/NFKb reporter line)
T1 sequence (Q9NYK1 27-1049): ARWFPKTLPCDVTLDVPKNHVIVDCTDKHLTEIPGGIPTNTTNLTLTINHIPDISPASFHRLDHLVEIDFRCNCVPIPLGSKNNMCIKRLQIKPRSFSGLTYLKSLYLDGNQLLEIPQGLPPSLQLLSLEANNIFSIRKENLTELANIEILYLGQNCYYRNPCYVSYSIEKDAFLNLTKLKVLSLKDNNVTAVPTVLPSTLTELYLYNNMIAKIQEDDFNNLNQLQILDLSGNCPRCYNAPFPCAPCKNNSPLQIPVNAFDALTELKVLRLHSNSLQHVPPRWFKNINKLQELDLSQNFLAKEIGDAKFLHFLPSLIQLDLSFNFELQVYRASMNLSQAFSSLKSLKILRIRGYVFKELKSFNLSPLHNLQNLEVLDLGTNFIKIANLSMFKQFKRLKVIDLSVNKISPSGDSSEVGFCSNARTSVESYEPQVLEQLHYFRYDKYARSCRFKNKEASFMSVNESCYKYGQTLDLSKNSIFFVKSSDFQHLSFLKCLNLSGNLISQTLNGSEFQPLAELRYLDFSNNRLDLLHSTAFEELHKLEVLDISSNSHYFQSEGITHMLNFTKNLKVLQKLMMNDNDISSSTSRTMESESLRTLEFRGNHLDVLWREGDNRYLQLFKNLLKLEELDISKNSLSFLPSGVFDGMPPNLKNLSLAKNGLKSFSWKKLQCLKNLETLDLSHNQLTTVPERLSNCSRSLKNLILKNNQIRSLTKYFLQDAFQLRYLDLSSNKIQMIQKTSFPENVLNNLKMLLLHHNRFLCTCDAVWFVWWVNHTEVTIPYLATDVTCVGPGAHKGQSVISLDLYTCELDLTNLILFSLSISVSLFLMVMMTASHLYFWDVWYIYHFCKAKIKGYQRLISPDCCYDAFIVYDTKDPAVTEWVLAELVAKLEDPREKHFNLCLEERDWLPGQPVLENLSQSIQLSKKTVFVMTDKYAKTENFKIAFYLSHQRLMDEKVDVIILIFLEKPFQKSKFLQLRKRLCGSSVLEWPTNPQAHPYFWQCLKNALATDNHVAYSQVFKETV
Format: cell-based
Outline: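 Steady-Glo luminescence after 5 h stimulation with R*48 agonist, following 30 min compound preincubation. Assay run in HEK cells carrying a TLR7/NFKb luciferase reporter, plated at 5000 cells/well and grown 24 h at 37° C (10% CO2) before treatment.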
With `C[C@H]1C[C@@H](NCC#N)CN(c2ccc(C#N)c3nccnc23)C1` [Compound 38, 8-((3R,5S)-3-(cyanomethylamino)-5-methylpiperidin-1-yl)quinoxaline-5-carbonitrile] the IC50 was under 1 µM. For `C[C@H]1C[C@@H](NC(=O)C(C2CC2)N(C)C)CN(c2ccc(C(F)(F)F)c3ncccc23)C1` (stereo partly drawn) [Compound 519, 2-Cyclopropyl-2-dimethylamino-N-[(3R,5S)-5-methyl-1-(8-trifluoromethyl-quinolin-5-yl)-piperidin-3-yl]-acetamide], the IC50 was under 1 µM. Molecule `CC(C(=O)N[C@@H]1C[C@H](C)CN(c2ccc(C(F)(F)F)c3ncccc23)C1)N1CCN(C)CC1` (stereo partly drawn) [Compound 516, 2-(4-Methyl-piperazin-1-yl)-N-[(3R,5S)-5-methyl-1-(8-trifluoromethyl-quinolin-5-yl)-piperidin-3-yl]-propionamide] has an IC50 of under 1 µM. `C[C@H]1C[C@@H](NC(=O)CN(C)C)CN(c2ccc(C(F)F)c3ncccc23)C1` [Compound 209, N-[(3R,5S)-1-[8-(difluoromethyl)quinolin-5-yl]-5-methylpiperidin-3-yl]-2-(dimethylamino)acetamide] showed an IC50 of under 1 µM. For `CC(C)[C@H](O)C(=O)NC1CC(C(F)(F)F)CN(c2ccc(C#N)c3ncccc23)C1` (single isomer, unassigned) [Compound 430], the IC50 was under 1 µM. Molecule `Cc1cc2c(N3C[C@@H](C)C[C@@H](N)C3)ccnc2n1C` [Compound 9, (3R,5S)-1-(1,2-dimethyl-1H-pyrrolo[2,3-b]pyridin-4-yl)-5-methylpiperidin-3-amine] has an IC50 of over 10 µM. `Cc1ncc(N2C[C@@H](C)C[C@@H](NC(=O)CC3(N)CCCCC3)C2)c2cccnc12` [Compound 563, 2-(1-Amino-cyclohexyl)-N-[(3R,5S)-5-methyl-1-(8-methyl-[1,7]naphthyridin-5-yl)-piperidin-3-yl]-acetamide] gave an IC50 of under 1 µM. In the case of `C[C@H]1C[C@@H](NC(=O)CC2CCN(CC(F)F)CC2)CN(c2ccc(C(F)(F)F)c3nccnc23)C1` [Compound 256, 2-[1-(2,2-difluoroethyl)piperidin-4-yl]-N-[(3R,5S)-5-methyl-1-[8-(trifluoromethyl)quinoxalin-5-yl]piperidin-3-yl]acetamide], the IC50 is reported as under 1 µM. With `CN(C)C(=O)CCC(=O)N1CCN(c2ccc(C#N)c3nccnc23)CC1` [Compound 454, 4-[4-(8-Cyano-quinoxalin-5-yl)-piperazin-1-yl]-N,N-dimethyl-4-oxo-butyramide] the IC50 was 1 to 10 µM. `C[C@H]1C[C@@H](NC(=O)C(O)C2CC2)CN(c2ccc(C(F)(F)F)c3ncccc23)C1` (stereo partly drawn) [Compound 515, 2-Cyclopropyl-2-hydroxy-N-[(3R,5S)-5-methyl-1-(8-trifluoromethyl-quinolin-5-yl)-piperidin-3-yl]-acetamide] showed an IC50 of under 1 µM. In the case of `N#Cc1ccc(N2C[C@@H](NC(=O)CN3CCOCC3)C[C@@H](C(F)(F)F)C2)c2nccnc12` (relative stereo) [Compound 228, cis-N-[1-(8-cyanoquinoxalin-5-yl)-5-(trifluoromethyl)piperidin-3-yl]-2-(morpholin-4-yl)acetamide], the IC50 is reported as 1 to 10 µM. `CNC(=O)CCC(=O)N[C@@H]1C[C@H](C)CN(c2cnc(C)c3ncccc23)C1` [Compound 565, N-Methyl-N′-[(3R,5S)-5-methyl-1-(8-methyl-[1,7]naphthyridin-5-yl)-piperidin-3-yl]-succinamide] gave an IC50 of 1 to 10 µM. `OC1CCC(NC2CC(C(F)(F)F)CN(c3ccnc4nccnc34)C2)CC1` (single isomer, unassigned) [Compound 93, cis,cis-4-((1-(pyrido[2,3-b]pyrazin-8-yl)-5-(trifluoromethyl)piperidin-3-yl)amino)cyclohexanol] showed an IC50 of over 10 µM. In the case of `C[C@H]1C[C@@H](NC(=O)CN)CN(c2ccnc3nccnc23)C1` [Compound 34, 2-amino-N-((3R,5S)-5-methyl-1-(pyrido[2,3-b]pyrazin-8-yl)piperidin-3-yl)acetamide], the IC50 is reported as over 10 µM. Molecule `CN1CC(CC(=O)NC2CC(C(F)(F)F)CN(c3ccc(C#N)c4ncccc34)C2)C1` (racemic) [Compound 490, cis-N-[(1-(8-Cyano-quinolin-5-yl)-5-trifluoromethyl-piperidin-3-yl]-2-(1-methyl-azetidin-3-yl)-acetamide] has an IC50 of under 1 µM. `COC(C)C(=O)N[C@@H]1C[C@H](C)CN(c2ccnc3nccnc23)C1` (single isomer, unassigned) [Compound 160] was tested, and the IC50 was over 10 µM. For `C[C@H]1C[C@@H](NC(=O)CC2CCN(C)CC2)CN(c2ccc(F)c3ncccc23)C1` [Compound 471, N-[(3R,5S)-1-(8-Fluoro-quinolin-5-yl)-5-methyl-piperidin-3-yl]-2-(1-methyl-piperidin-4-yl)-acetamide], the IC50 was under 1 µM. `C[C@H]1C[C@@H](NC(=O)C(N)C(F)(F)F)CN(c2c(F)cc(C#N)c3nccnc23)C1` (single isomer, unassigned) [Compound 346] was tested, and the IC50 was over 10 µM. For `CCN(C)[C@H](C)C(=O)N[C@@H]1C[C@H](C)CN(c2ccnc3nccnc23)C1` [Compound 100, (2R)-2-[ethyl(methyl)amino]-N-[(3R,5S)-5-methyl-1-[pyrido[2,3-b]pyrazin-8-yl]piperidin-3-yl]propanamide], the IC50 was 1 to 10 µM. Work on `C[C@@H]1CN(c2ccnc3nccnc23)C[C@H](C(=O)NC2CCN(C)CC2)O1` [Compound 65, (2R,6R)-6-methyl-N-(1-methylpiperidin-4-yl)-4-(pyrido[2,3-b]pyrazin-8-yl)morpholine-2-carboxamide] yielded an IC50 of under 1 µM. In the case of `CC1(C)C[C@@H](NC(=O)CN2CCOCC2)CN(c2ccc(C#N)c3nccnc23)C1` [Compound 214, N-[(3R)-1-(8-cyanoquinoxalin-5-yl)-5,5-dimethylpiperidin-3-yl]-2-(morpholin-4-yl)acetamide], the IC50 is reported as 1 to 10 µM. `CC(O)C(=O)N[C@@H]1C[C@H](C)CN(c2ccc(C(F)F)c3ncccc23)C1` (stereo partly drawn) [Compound 302, N-[(3R,5S)-1-[8-(difluoromethyl)quinolin-5-yl]-5-methylpiperidin-3-yl]-2-hydroxypropanamide] gave an IC50 of 1 to 10 µM. In the case of `C[C@H]1C[C@@H](NC(=O)C(N)C(F)(F)F)CN(c2ccc(C(F)F)c3ncccc23)C1` (single isomer, unassigned) [Compound 208], the IC50 is reported as under 1 µM. In the case of `N#Cc1ccc(N2CC(N)CC(F)(F)C2)c2nccnc12` (single isomer, unassigned) [Compound 76], the IC50 is reported as 1 to 10 µM. `C[C@H]1C[C@@H](NC(=O)C(N)C(F)(F)F)CN(c2ccc(C(F)(F)F)c3ncccc23)C1` (single isomer, unassigned) [Compound 197] showed an IC50 of 1 to 10 µM. Work on `N#Cc1ccc(N2CC(NC(=O)C(N)C3CC3)CC(C(F)(F)F)C2)c2cccnc12` (single isomer, unassigned) [Compound 487] yielded an IC50 of under 1 µM. `CC(C(=O)N[C@@H]1C[C@H](C)CN(c2ccc(C(F)F)c3nccnc23)C1)N1CCC(O)CC1` (stereo partly drawn) [Compound 325, N-[(3R,5S)-1-[8-(difluoromethyl)quinoxalin-5-yl]-5-methylpiperidin-3-yl]-2-(4-hydroxypiperidin-1-yl)propanamide] was tested, and the IC50 was 1 to 10 µM. For `N#Cc1ccc(N2C[C@@H](NC(=O)CN3CCOCC3)C[C@@H](C(F)(F)F)C2)c2cccnc12` (racemic) [Compound 424, cis-N-[1-(8-Cyano-quinolin-5-yl)-5-trifluoromethyl-piperidin-3-yl]-2-morpholin-4-yl-acetamide], the IC50 was 1 to 10 µM. `O=C(NCC1CCN(c2ccnc3nccnc23)CC1)c1ccccn1` [Compound 392, Pyridine-2-carboxylic acid (1-pyrido[2,3-b]pyrazin-8-yl-piperidin-4-ylmethyl)-amide] gave an IC50 of over 10 µM. `C[C@H]1C[C@@H](NC(=O)[C@H](N)CO)CN(c2ccc(C#N)c3nccnc23)C1` [Compound 106, (2R)-2-amino-N-[(3R,5S)-1-(8-cyanoquinoxalin-5-yl)-5-methylpiperidin-3-yl]-3-hydroxypropanamide] gave an IC50 of under 1 µM. Work on `N#Cc1ccc(N2C[C@@H](NC(=O)CCC(=O)N3CCC3)C[C@@H](C(F)(F)F)C2)c2cccnc12` (racemic) [Compound 482] yielded an IC50 of 1 to 10 µM. `C[C@H]1C[C@@H](NC(=O)C2(CO)CC2)CN(c2ccc(C#N)c3nccnc23)C1` [Compound 162, N-[(3R,5S)-1-(8-cyanoquinoxalin-5-yl)-5-methylpiperidin-3-yl]-1-(hydroxymethyl)cyclopropane-1-carboxamide] was tested, and the IC50 was 1 to 10 µM. `COc1ccc(N2C[C@@H](C)C[C@@H](NC(=O)CN(C)C)C2)c2nccnc12` [Compound 203, 2-(dimethylamino)-N-[(3R,5S)-1-(8-methoxyquinoxalin-5-yl)-5-methylpiperidin-3-yl]acetamide] gave an IC50 of 1 to 10 µM.
